Key:
IDH1 R132H = IDH1 R132H (Homo sapiens, UniProt O75874, R132H); experiment: IDH1 R132H enzymatic assay (NADPH depletion coupled to diaphorase/resazurin); format: biochemical
IDH1 R132C = IDH1 R132C (Homo sapiens, UniProt O75874, R132C); experiment: IDH1 R132C enzymatic assay (NADPH depletion coupled to diaphorase/resazurin); format: biochemical
How it was run: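 NADPH depletion, read via diaphorase/resazurin coupling, after adding substrate at 0.6 mM α-KG and 0.012 mM NADPH. Beforehand, 0.00032 mg/mL enzyme sat with compound 30 min at room temperature in pH 6.5 potassium phosphate buffer with MgCl2, glycerol and BSA.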

[1] = IDH1 R132H enzymatic inhibition, IC50 class
[2] = IDH1 R132C enzymatic inhibition, IC50 class
[3] = enzymatic inhibition, IDH1 R132H
[4] = enzymatic inhibition, IDH1 R132C

Chain of IDH1 R132H (O75874 whole entry R132H): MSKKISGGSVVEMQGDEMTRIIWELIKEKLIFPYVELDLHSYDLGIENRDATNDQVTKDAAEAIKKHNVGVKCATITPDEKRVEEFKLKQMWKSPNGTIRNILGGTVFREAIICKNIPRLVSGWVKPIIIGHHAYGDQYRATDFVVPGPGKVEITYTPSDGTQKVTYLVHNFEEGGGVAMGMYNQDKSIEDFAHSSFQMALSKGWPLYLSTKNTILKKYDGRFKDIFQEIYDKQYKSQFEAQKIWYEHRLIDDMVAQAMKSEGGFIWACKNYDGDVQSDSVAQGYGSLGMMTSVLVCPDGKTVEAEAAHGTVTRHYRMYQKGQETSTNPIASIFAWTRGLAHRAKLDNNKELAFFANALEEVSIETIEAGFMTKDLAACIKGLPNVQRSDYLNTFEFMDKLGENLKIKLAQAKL
Chain of IDH1 R132C (O75874 whole entry R132C): as the sequence (O75874 whole entry R132H) above, with H132C counted along it

Compound | IC50 (IDH1 R132H; [1]) [nM] | IC50 (IDH1 R132C; [2]) [nM] | IC50 (IDH1 R132H; [3]) [nM] | IC50 (IDH1 R132C; [4]) [nM]
CCOc1ccc(F)cc1-n1c(C=C(C)C)c(C(=O)N2CCNCC2)cc(-c2nc(-c3ccc(C(F)F)cc3)cs2)c1=O [Compound 376] | < 300 | < 300 |  | 
CCc1cccc(CC)c1-n1c(CC(C)C)c(C(=O)N2CCN[C@@H](C(=O)O)C2)cc(-c2nc(-c3ccc(Cl)cc3)cs2)c1=O [Compound 102] | 300 to 1000 | < 300 |  | 
CCc1ccc(F)cc1-n1c(C=C(C)C)c(C(=O)N2CCNCC2)cc(-c2nc(-c3ccc(C(F)(F)F)nc3)cs2)c1=O [Compound 424] |  |  | < 300 | 300 to 1000
CCc1cccc(CC)c1-n1c(C=C(C)C)c(C(=O)N2CCCC(N)C2)cc(-c2nc(-c3ccc(Cl)cc3)cs2)c1=O (stereo not drawn) [Compound 629] | < 300 | < 300 |  | 
CCOc1ncc(F)cc1-n1c(C=C(C)C)c(C(=O)N2CCNCC2)cc(-c2nc(-c3ccc(C(F)F)nc3)cs2)c1=O [Compound 520] |  |  | < 300 | 1000 to 5000
CCc1cccc(CC)c1-n1c(C=C(C)C)c(C(=O)N2CCNCC2)cc(-c2nn(-c3ccc(Cl)cc3)cc2Cl)c1=O [Compound 345] | 1000 to 5000 | 1000 to 5000 |  | 
CCc1cccc(CC)c1-n1c(C=C(C)C)c(C(=O)N2CCNC(=O)C2)cc(-c2ccn(-c3ccc(Cl)cc3)n2)c1=O [Compound 593] |  |  | < 300 | < 300
CCc1cccc(CC)c1-n1c(C=C(C)C)c(C(=O)N2CC3(CCNC3)C2)cc(-c2nc(-c3ccc(Cl)cc3)cs2)c1=O [Compound 344] | 300 to 1000 | < 300 |  | 
CCOc1ncc(C)cc1-n1c(C=C(C)C)c(C(=O)N2CCNCC2)cc(-c2nc(-c3ccc(C(F)F)cc3)cs2)c1=O [Compound 562] |  |  | < 300 | < 300
CCc1cccc(CC)c1-n1c(C=C(C)C)c(C(=O)N2CCNCC2)cc(-c2nc(-c3ccc(OC4CC4)cc3)cs2)c1=O [Compound 605] |  |  | < 300 | < 300
CCc1cccc(CC)c1-n1c(CC(C)C)c(C(=O)N2CCCCC2CO)cc(-c2nc(-c3ccc(Cl)cc3)cs2)c1=O (stereo not drawn) [Compound 312] | 1000 to 5000 | 300 to 1000 |  | 
CCc1cccc(CC)c1-n1c(CC(C)C)c(C(=O)N2CCNC(C(F)(F)F)C2)cc(-c2nc(-c3ccc(Cl)cc3)cs2)c1=O (stereo not drawn) [Compound 314] | 300 to 1000 | 300 to 1000 |  | 
CCc1cccc(CC)c1-n1c(CC(C)C)c(C(=O)N2CCCC(CO)C2)cc(-c2nc(-c3ccc(Cl)cc3)cs2)c1=O (stereo not drawn) [Compound 34] | 1000 to 5000 | 300 to 1000 |  | 
CCOc1ccc(Cl)cc1-n1c(C=C(C)C)c(C(=O)N2CCNCC2)cc(-c2nc(-c3ccc(C(F)(F)F)nc3)cs2)c1=O [Compound 626] | < 300 | 300 to 1000 |  | 
CCc1ccc(Cl)cc1-n1c(C=C(C)C)c(C(=O)N2CCNCC2)cc(-c2nc(-c3ccc(C(F)F)cc3)cs2)c1=O [Compound 571] |  |  | < 300 | < 300
CCc1cccc(CC)c1-n1c(CC(C)C)c(C(=O)N2CCNCC2)cc(-c2cccc(-c3ccc(Cl)cc3)n2)c1=O [Compound 310] | 1000 to 5000 | 1000 to 5000 |  | 

Compound | IC50 (IDH1 R132H; [1]) [nM] | IC50 (IDH1 R132C; [2]) [nM] | IC50 (IDH1 R132H; [3]) [nM] | IC50 (IDH1 R132C; [4]) [nM]
CCOc1ncc(C)cc1-n1c(C=C(C)C)c(C(=O)N2CCNCC2)cc(-c2nc(-c3ccc(C(F)F)nc3)cs2)c1=O [Compound 326] | < 300 | 300 to 1000 |  | 
CCc1cccc(CC)c1-n1c(C(C)(C)F)c(C(=O)N2CCNCC2)cc(-c2nc(-c3ccc(Cl)cc3)cs2)c1=O [Compound 664] | 300 to 1000 | 300 to 1000 |  | 
CCc1cccc(CC)c1-n1c(CC(C)C)c(C(=O)N2CCNCC2)cc(-c2csc(-c3ccc(Cl)cc3)n2)c1=O [Compound 505] |  |  | < 300 | < 300
CCc1cccc(CC)c1-n1c(C=C(C)C)c(C(=O)N2CCN[C@@H](C(=O)O)C2)cc(-c2nc(-c3ccc(C(F)(F)F)cc3)cs2)c1=O [Compound 641] | < 300 | < 300 |  | 
CCc1cccc(CC)c1-n1c(CC2CCCO2)c(C(=O)N2CCNCC2)cc(-c2nc(-c3ccc(Cl)cc3)cs2)c1=O (stereo not drawn) [Compound 506] |  |  | < 300 | < 300
CCc1cccc(CC)c1-n1c2c(cc(-c3nc(-c4ccccc4C(F)(F)F)cs3)c1=O)C(=O)CC(C)(C)C2 [Compound 230] | 5000 to 20000 | 1000 to 5000 |  | 
CCc1cccc(CC)c1-n1c(C)c(C(=O)NCC(C)(C)C)cc(-c2nc(-c3ccc(Cl)cc3)cs2)c1=O [Compound 146] | > 20000 | 1000 to 5000 |  | 
CCc1cccc(CC)c1-n1c(C)c(C(=O)N(C)CCO)cc(-c2nc(-c3ccc(Cl)cc3)cs2)c1=O [Compound 308] | 1000 to 5000 | 1000 to 5000 |  | 
CCc1cccc(CC)c1-n1c(C)c(C(=O)N2CCCCC2C(=O)O)cc(-c2nc(-c3ccc(Cl)cc3)cs2)c1=O (stereo not drawn) [Compound 67] | 1000 to 5000 | 5000 to 20000 |  | 
CCc1cccc(CC)c1-n1c(C)c(C(=O)N2CCNCC2)c(O)c(C(=O)Nc2nc(-c3ccc(Cl)cc3)cs2)c1=O [Compound 400] | > 20000 | > 20000 |  | 
CCc1cccc(CC)c1-n1c(C)c(C(=O)NC2CCCC(N)C2)cc(-c2nc(-c3ccc(Cl)cc3)cs2)c1=O (mixture of isomers) [Compound 126] | 5000 to 20000 | 1000 to 5000 |  | 
CCc1cccc(CC)c1-n1c(C=C(C)C)c(C(=O)N2CCNC(C#N)C2)cc(-c2nc(-c3ccc(Cl)cc3)cs2)c1=O (stereo not drawn) [Compound 657] | < 300 | < 300 |  | 
CCc1cccc(CC)c1-n1c(CC(C)C)c(C(=O)N2CCNC(C)C2C)cc(-c2nc(-c3ccc(Cl)cc3)cs2)c1=O (stereo not drawn) [Compound 107] | 300 to 1000 | < 300 |  | 
CCc1cccc(CC)c1-n1c(CC2CC2)c(C(=O)N2CCNCC2)cc(-c2nc(-c3ccc(Cl)nc3)cs2)c1=O [Compound 492] |  |  | < 300 | < 300
CCc1cccc(CC)c1-n1c(CC(C)C)c(C(=O)N2CCNCC2)cc(-c2nc(Nc3ccc(Cl)cc3)c(C)s2)c1=O [Compound 412] |  |  | 5000 to 20000 | 5000 to 20000

Further lines, results first:

IC50 (IDH1 R132H; [1]) [nM] | IC50 (IDH1 R132C; [2]) [nM] | IC50 (IDH1 R132H; [3]) [nM] | IC50 (IDH1 R132C; [4]) [nM] | Compound
300 to 1000 | 300 to 1000 |  |  | Cc1ccc(-c2csc(-c3cc4c(n(-c5ccccc5C(F)(F)F)c3=O)CC(C)(C)CC4=O)n2)cc1 [Compound 71]
 |  | < 300 | < 300 | CCOc1ccccc1-n1c(C=C(C)C)c(C(=O)N2CCNCC2)cc(-c2nc(-c3ccc(Cl)cc3)cs2)c1=O [Compound 572]
1000 to 5000 | 300 to 1000 |  |  | CCc1cccc(C)c1-n1c2c(cc(-c3nc(-c4ccc(Cl)cc4)cs3)c1=O)C(=O)CC(C)(C)C2 [Compound 279]
 |  | > 20000 | > 20000 | COc1ccc(CN2CCN(C)CC2)cc1-n1c2c(cc(-c3nc(-c4ccc(Cl)cc4)cs3)c1=O)C(=O)CCC2 [Compound 527]
< 300 | 300 to 1000 |  |  | COc1ccc(OC)c(-n2c3c(cc(-c4nc5cc(Cl)ccc5s4)c2=O)C(=O)CC(C)(C)C3)c1 [Compound 175]
 |  | 5000 to 20000 | 5000 to 20000 | CN1CCN(c2ccc(-n3c4c(cc(-c5nc(-c6ccc(Cl)cc6)cs5)c3=O)C(=O)CC(C)(C)C4)c(C(F)(F)F)c2)CC1 [Compound 493]
5000 to 20000 | 5000 to 20000 |  |  | COc1ccc(OC)c(-n2c3c(cc(-c4nc(-c5ccc(Cl)cc5)cs4)c2=O)C(=O)CNC3)c1 [Compound 280]
 |  | 5000 to 20000 | 5000 to 20000 | Cc1ccc(CN2CCN(C)CC2)cc1-n1c2c(cc(-c3nc(-c4ccc(Cl)cc4)cs3)c1=O)C(=O)CC(C)(C)C2 [Compound 460]
< 300 | < 300 |  |  | CC(C)=Cc1c(C(=O)N2CCNCC2)cc(-c2nc(-c3ccc(Cl)cc3)cs2)c(=O)n1-c1c(Cl)cccc1Cl [Compound 384]
5000 to 20000 | 5000 to 20000 |  |  | CC1(C)CC(=O)c2cc(-c3nc(-c4ccc(Cl)cc4)cs3)c(=O)n(-c3cn[nH]c3)c2C1 [Compound 177]
 |  | > 20000 | > 20000 | O=C1CCCc2c1cc(-c1nc(-c3ccc(Cl)cc3)cs1)c(=O)n2-c1cccnc1 [Compound 481]
300 to 1000 | 300 to 1000 |  |  | CCc1cccc(CC)c1-n1c(CC)c(C(=O)NC)cc(-c2nc(-c3ccc(Cl)cc3)cs2)c1=O [Compound 293]
 |  | 1000 to 5000 | 1000 to 5000 | COc1cccc(-n2c3c(cc(-c4nc(-c5ccc(Cl)cc5)cs4)c2=O)C(=O)CC(C)(C)C3)c1OC [Compound 567]
5000 to 20000 | 5000 to 20000 |  |  | COc1ccc(OC)c(-n2c3c(cc(C(=O)NCc4ccc(Cl)cc4)c2=O)C(=O)CC(C)(C)C3)c1 [Compound 93]
5000 to 20000 | 1000 to 5000 |  |  | COc1ccc(OC)c(-n2c(=O)c(-c3nc(-c4ccc(Cl)cc4)cs3)cc3c(OC)nccc32)c1 [Compound 97]
> 20000 | 5000 to 20000 |  |  | CC(c1ccccc1)n1c2c(cc(-c3nc(-c4ccc(Cl)cc4)cs3)c1=O)C(=O)CC(C)(C)C2 (stereo not drawn) [Compound 11]
1000 to 5000 | 1000 to 5000 |  |  | CNc1ccccc1-n1c2c(cc(-c3nc(-c4ccc(Cl)cc4)cs3)c1=O)C(=O)CC(C)(C)C2 [Compound 42]
 |  | 300 to 1000 | 300 to 1000 | CCOc1cccc(OCC)c1-n1c2c(cc(-c3nc(-c4ccc(Cl)cc4)cs3)c1=O)C(=O)CCC2 [Compound 444]
 |  | < 300 | < 300 | CCc1ccc(Cl)c(CC)c1-n1c2c(cc(-c3nc(-c4ccc(Cl)cc4)cs3)c1=O)C(=O)CC(C)(C)C2 [Compound 548]
300 to 1000 | 300 to 1000 |  |  | COC(=O)c1ccsc1-n1c2c(cc(-c3nc(-c4ccc(Cl)cc4)cs3)c1=O)C(=O)CC(C)(C)C2 [Compound 652]
< 300 | < 300 |  |  | CCOc1ccc(Cl)c(-n2c(C=C(C)C)c(C(=O)N3CCNCC3)cc(-c3nc(-c4ccc(Cl)cc4)cs3)c2=O)c1 [Compound 354]
 |  | > 20000 | > 20000 | Cc1ccc(-n2c3c(cc(-c4nc(-c5ccc(Cl)cc5)cs4)c2=O)C(=O)CCC3)c(C)c1 [Compound 450]
> 20000 | 5000 to 20000 |  |  | COc1ccc(OC)c(-n2c3c(cc(-c4cc(-c5ccccc5)[nH]n4)c2=O)C(=O)CC(C)(C)C3)c1 [Compound 294]

Reference: patent publication US10703746B2, “Mutant IDH1 inhibitors useful for treating cancer” (THE UNITED STATES OF AMERICA, AS REPRESENTED BY THE …, priority 2014, dated 2020)
